The values that follow are results of earlier work, collected in patent US9738932B2, “Biomarkers for cardiovascular side-effects induced by cox-2 inhibitory compounds” (FIRALIS SAS, priority 2005, dated 2017).

The data set has as its system CXCL10 synthesis. As to conditions: by preventing PGE2 production and PKA activation; cited from earlier work.

In the case of `CS(=O)(=O)Nc1ccc([N+](=O)[O-])cc1OC1CCCCC1` [NS398], the “effect on CXCL10 synthesis upon INFγ stimulation” value is given as “potentiates”.
